Among the data in ChEMBL document CHEMBL4673314, “Stabilization Strategies for Linear Minigastrin Analogues: Further Improvements via the Inclusion of Proline into the Peptide Sequence” (J Med Chem, 2020) are Retention_time values, retold here.

Non-standard residues stand in square brackets, D forms with d. Residues, ends and D or L forms follow the SMILES beside them. *: point of attachment. DOTA = O=C(O)CN1CCN(CC(=O)O)CCN(CC(=O)*)CCN(CC(=O)O)CC1; 1Nal = N[C@@H](Cc1cccc2ccccc12)C(=O)O; NMeNle = CCCC[C@H](NC)C(=O)O

A short description of this series: Retention time of the compound by HPLC method. The series is classed as physicochemical.
The molecule `CCCC[C@@H](C(=O)N[C@@H](CC(=O)O)C(=O)N[C@@H](Cc1cccc2ccccc12)C(N)=O)N(C)C(=O)[C@H](Cc1c[nH]c2ccccc12)NC(=O)[C@@H]1CCCN1C(=O)[C@H](Cc1ccc(O)cc1)NC(=O)[C@H](C)NC(=O)[C@@H](CCC(=O)O)NC(=O)CN1CCN(CC(=O)O)CCN(CC(=O)O)CCN(CC(=O)O)CC1` ({DOTA}-[dE]AYPW[NMeNle]D[1Nal]-NH2) returned a Retention_time of 16.8 min.

In turn, `CCCC[C@@H](C(=O)N[C@@H](CC(=O)O)C(=O)N[C@@H](Cc1cccc2ccccc12)C(N)=O)N(C)C(=O)[C@H](Cc1c[nH]c2ccccc12)NC(=O)CNC(=O)[C@H](Cc1ccc(O)cc1)NC(=O)[C@@H]1CCCN1C(=O)[C@@H](CCC(=O)O)NC(=O)CN1CCN(CC(=O)O)CCN(CC(=O)O)CCN(CC(=O)O)CC1` ({DOTA}-[dE]PYGW[NMeNle]D[1Nal]-NH2) came in with a Retention_time of 16.9 min.

`CCCC[C@@H](C(=O)N[C@@H](CC(=O)O)C(=O)N[C@@H](Cc1cccc2ccccc12)C(N)=O)N(C)C(=O)[C@H](Cc1c[nH]c2ccccc12)NC(=O)CNC(=O)[C@@H]1CCCN1C(=O)[C@H](Cc1ccc(O)cc1)NC(=O)[C@@H](CCC(=O)O)NC(=O)CN1CCN(CC(=O)O)CCN(CC(=O)O)CCN(CC(=O)O)CC1` ({DOTA}-[dE]YPGW[NMeNle]D[1Nal]-NH2) had a Retention_time of 16.9 min.
